# Data: paper PMC4282330, “The yeast enzyme Eht1 is an octanoyl-CoA:ethanol acyltransferase that also functions as a thioesterase” (Yeast (Chichester, England), 2014)
# Values joined by “and” are separate entries in the source; they are usually repeats but may differ in a detail not shown here. Identical values can stand only once.
# T1: Eht1 (Saccharomyces cerevisiae, UniProt P38295)
# T1 construct: 55 kDa
# T1 sequence (P38295 1-451): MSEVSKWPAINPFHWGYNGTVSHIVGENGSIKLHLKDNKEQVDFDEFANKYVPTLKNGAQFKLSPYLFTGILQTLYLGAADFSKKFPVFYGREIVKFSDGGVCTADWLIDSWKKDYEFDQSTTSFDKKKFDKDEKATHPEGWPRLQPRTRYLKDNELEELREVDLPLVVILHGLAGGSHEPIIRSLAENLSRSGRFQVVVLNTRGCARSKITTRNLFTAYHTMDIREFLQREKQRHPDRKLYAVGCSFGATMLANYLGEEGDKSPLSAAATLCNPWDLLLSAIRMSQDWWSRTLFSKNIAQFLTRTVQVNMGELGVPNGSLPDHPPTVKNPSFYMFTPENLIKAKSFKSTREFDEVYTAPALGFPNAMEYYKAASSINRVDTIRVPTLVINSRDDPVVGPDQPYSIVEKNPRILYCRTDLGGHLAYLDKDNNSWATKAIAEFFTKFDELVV
# Tests used:
# Eht1 = biological target: T1, Eht1; experiment: coupled alpha-ketoglutarate dehydrogenase assay of CoA release (NADH); assay type: biochemical; details: 0.125% ethanol, pH 7.4, 25 °C; assay insensitive to ethanol (thioesterase)
# [1] = biological target: the molecule itself; experiment: native gel or EMSA; blue native PAGE, 4–16% acrylamide Bis–Tris gels, Coomassie G-250 added to samples at 0.005%; purified Eht1 in FC12
# [2] = biological target: the molecule itself; experiment: SEC; Superdex 200 10/300 GL, 0.5 ml/min, in Column Buffer (50 mM sodium phosphate, pH 7.4, 150 mM NaCl, 5% glycerol, 0.1% FC-12); apparent size relative to molecular weight standards
# [3] = substrate: CCCCCCCC(=O)SCCNC(=O)CCNC(=O)[C@H](O)C(C)(C)COP(=O)(O)OP(=O)(O)OC[C@H]1O[C@@H](n2cnc3c(N)ncnc32)[C@H](O)[C@@H]1OP(=O)(O)O; experiment: coupled alpha-ketoglutarate dehydrogenase assay of CoA release (NADH); assay type: biochemical, Saccharomyces cerevisiae; details: 0.125% ethanol, pH 7.4, 25 °C, assay insensitive to ethanol (thioesterase)
# Text: coupled alpha-ketoglutarate dehydrogenase assay of CoA release (NADH) on Eht1 | the preferred substrate for Eht1 was octanoyl-CoA (largest kcat/KM)
Molecule,KM (Eht1),also measured
"CCCC(=O)SCCNC(=O)CCNC(=O)[C@H](O)C(C)(C)COP(=O)(O)OP(=O)(O)OC[C@H]1O[C@@H](n2cnc3c(N)ncnc32)[C@H](O)[C@@H]1OP(=O)(O)O [C4, acyl-CoA of chain length C4]",acyl-CoA substrates of chain length C4–C14 followed classical Michaelis–Menten kinetics,–
"CCCCCCCCCCCCCC(=O)SCCNC(=O)CCNC(=O)[C@H](O)C(C)(C)COP(=O)(O)OP(=O)(O)OC[C@H]1O[C@@H](n2cnc3c(N)ncnc32)[C@H](O)[C@@H]1OP(=O)(O)O [C14, acyl-CoA of chain length C14]",acyl-CoA substrates of chain length C4–C14 followed classical Michaelis–Menten kinetics,–
CCCCCCCCCCCC(=O)SCCNC(=O)CCNC(=O)[C@H](O)C(C)(C)COP(=O)(O)OP(=O)(O)OC[C@H]1O[C@@H](n2cnc3c(N)ncnc32)[C@H](O)[C@@H]1OP(=O)(O)O [acyl-CoA within chain lengths C4–C14 (C12)],acyl-CoA substrates of chain length C4–C14 followed classical Michaelis–Menten kinetics,–
CCCCCCCCCC(=O)SCCNC(=O)CCNC(=O)[C@H](O)C(C)(C)COP(=O)(O)OP(=O)(O)OC[C@H]1O[C@@H](n2cnc3c(N)ncnc32)[C@H](O)[C@@H]1OP(=O)(O)O [decanoyl-CoA],acyl-CoA substrates of chain length C4–C14 followed classical Michaelis–Menten kinetics,–
"ethanol hexanoyl transferase 1 (Eht1) (enzyme, Saccharomyces cerevisiae, UniProt P38295 1-451, looked up, Theoretical mass of the recombinant protein is printed as 55 kDa; also called recombinant Eht1; YBR177C gene product; source: yeast, plasmid pYES2CT, galactose-induced; purified from FC12-solubilized sedimenting membranes (Ni-NTA)) MSEVSKWPAINPFHWGYNGTVSHIVGENGSIKLHLKDNKEQVDFDEFANKYVPTLKNGAQFKLSPYLFTGILQTLYLGAADFSKKFPVFYGREIVKFSDGGVCTADWLIDSWKKDYEFDQSTTSFDKKKFDKDEKATHPEGWPRLQPRTRYLKDNELEELREVDLPLVVILHGLAGGSHEPIIRSLAENLSRSGRFQVVVLNTRGCARSKITTRNLFTAYHTMDIREFLQREKQRHPDRKLYAVGCSFGATMLANYLGEEGDKSPLSAAATLCNPWDLLLSAIRMSQDWWSRTLFSKNIAQFLTRTVQVNMGELGVPNGSLPDHPPTVKNPSFYMFTPENLIKAKSFKSTREFDEVYTAPALGFPNAMEYYKAASSINRVDTIRVPTLVINSRDDPVVGPDQPYSIVEKNPRILYCRTDLGGHLAYLDKDNNSWATKAIAEFFTKFDELVV",–,stoichiometry N [1]: ~2 and ~4; stoichiometry N [2]: ~5; Km [3]: 1.9 ± 0.6 µM; kcat [3]: 0.28 ± 0.02 s⁻¹
